Test results from ChEMBL document CHEMBL1909046, “DrugMatrix in vitro pharmacology data”.

Assays:
[1] = molecular target: Beta-1 adrenergic receptor (Homo sapiens, UniProt P08588); assay: DRUGMATRIX: Adrenergic beta1 radioligand binding (ligand: [125I] Cyanopindolol); assay type: cell membranes, CHO-K1, Membrane; details: cho-k1; Not Active = under 50% inhibition at 10 µM
[2] = DRUGMATRIX: Nicotinic Acetylcholine radioligand binding (ligand: [125I] Epibatidine); assay type: cell membranes, Membrane; details: imr-32; Not Active = under 50% inhibition at 10 µM
Cytochrome P450 2D6 = Cytochrome P450 2D6 (Homo sapiens, UniProt P10635); details: bti-tn-5b1-4; also: in other assays of this panel Not Active means under 50% inhibition at 10 µM
Sequence of Cytochrome P450 2D6 (P10635 whole entry): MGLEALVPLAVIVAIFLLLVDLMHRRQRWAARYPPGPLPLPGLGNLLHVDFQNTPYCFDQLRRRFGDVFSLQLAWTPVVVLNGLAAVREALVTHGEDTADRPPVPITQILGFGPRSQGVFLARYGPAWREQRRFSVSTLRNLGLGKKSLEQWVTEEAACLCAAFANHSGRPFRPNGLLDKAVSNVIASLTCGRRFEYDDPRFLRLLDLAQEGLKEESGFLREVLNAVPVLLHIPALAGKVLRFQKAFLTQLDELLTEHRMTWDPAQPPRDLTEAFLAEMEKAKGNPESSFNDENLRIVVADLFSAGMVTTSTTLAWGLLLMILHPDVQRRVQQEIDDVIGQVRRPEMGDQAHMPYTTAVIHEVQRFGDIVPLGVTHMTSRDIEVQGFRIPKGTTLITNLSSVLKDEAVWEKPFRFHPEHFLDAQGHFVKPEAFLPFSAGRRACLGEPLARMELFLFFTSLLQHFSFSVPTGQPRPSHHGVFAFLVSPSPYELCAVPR

Cytochrome P450 2C19 = Cytochrome P450 2C19 (Homo sapiens, UniProt P33261); details: bti-tn-5b1-4; also: in other assays of this panel Not Active means under 50% inhibition at 10 µM
Sequence of Cytochrome P450 2C19 (P33261 whole entry): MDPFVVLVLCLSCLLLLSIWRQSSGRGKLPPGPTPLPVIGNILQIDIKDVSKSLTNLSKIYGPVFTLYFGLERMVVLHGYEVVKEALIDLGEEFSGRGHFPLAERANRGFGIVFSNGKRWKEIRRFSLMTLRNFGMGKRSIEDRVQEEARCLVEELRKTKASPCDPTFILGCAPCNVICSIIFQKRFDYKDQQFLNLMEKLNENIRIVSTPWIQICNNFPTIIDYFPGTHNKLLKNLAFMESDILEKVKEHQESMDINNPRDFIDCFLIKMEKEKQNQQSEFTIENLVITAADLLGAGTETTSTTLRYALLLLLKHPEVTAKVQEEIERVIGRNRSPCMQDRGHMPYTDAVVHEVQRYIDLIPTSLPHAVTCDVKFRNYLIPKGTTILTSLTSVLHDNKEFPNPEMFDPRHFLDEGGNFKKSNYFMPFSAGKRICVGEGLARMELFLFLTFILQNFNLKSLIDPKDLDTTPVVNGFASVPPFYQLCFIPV

[3] = molecular target: T1, Muscarinic acetylcholine receptor M2 (Homo sapiens, UniProt P08172); assay type: cell membranes, CHO-K1, Membrane; details: cho-k1; also: in other assays of this panel Not Active means under 50% inhibition at 10 µM
T1 sequence (P08172 whole entry): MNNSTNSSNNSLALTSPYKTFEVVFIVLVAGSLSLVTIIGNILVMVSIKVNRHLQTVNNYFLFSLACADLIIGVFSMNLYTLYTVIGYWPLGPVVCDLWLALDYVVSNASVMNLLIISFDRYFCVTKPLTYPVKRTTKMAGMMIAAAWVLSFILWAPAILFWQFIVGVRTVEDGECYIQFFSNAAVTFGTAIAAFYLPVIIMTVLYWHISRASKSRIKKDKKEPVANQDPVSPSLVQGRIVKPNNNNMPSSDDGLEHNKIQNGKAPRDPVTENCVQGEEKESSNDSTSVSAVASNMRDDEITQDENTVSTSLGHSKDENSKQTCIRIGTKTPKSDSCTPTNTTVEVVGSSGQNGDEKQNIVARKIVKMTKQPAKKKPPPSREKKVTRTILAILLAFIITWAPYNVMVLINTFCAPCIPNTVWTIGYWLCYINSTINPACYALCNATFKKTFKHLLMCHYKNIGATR

Substance-P receptor = Substance-P receptor (Homo sapiens, UniProt P25103); assay type: cell membranes, CHO, Membrane; details: cho; also: in other assays of this panel Not Active means under 50% inhibition at 10 µM
Sequence of Substance-P receptor (P25103 whole entry): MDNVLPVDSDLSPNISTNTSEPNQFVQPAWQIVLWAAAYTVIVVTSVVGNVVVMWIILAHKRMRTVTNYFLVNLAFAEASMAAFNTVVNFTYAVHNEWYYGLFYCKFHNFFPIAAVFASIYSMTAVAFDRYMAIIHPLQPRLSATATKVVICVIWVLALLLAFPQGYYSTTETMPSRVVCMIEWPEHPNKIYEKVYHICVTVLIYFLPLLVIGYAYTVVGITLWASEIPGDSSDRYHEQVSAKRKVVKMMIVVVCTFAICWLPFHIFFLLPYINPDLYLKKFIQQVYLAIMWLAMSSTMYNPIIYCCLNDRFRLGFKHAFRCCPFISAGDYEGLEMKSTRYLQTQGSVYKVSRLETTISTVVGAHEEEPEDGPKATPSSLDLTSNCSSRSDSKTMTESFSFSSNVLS

Cannabinoid receptor 1 = Cannabinoid receptor 1 (Homo sapiens, UniProt P21554); assay type: cell membranes, Membrane; details: chem-1; also: in other assays of this panel Not Active means under 50% inhibition at 10 µM
Sequence of Cannabinoid receptor 1 (P21554 whole entry): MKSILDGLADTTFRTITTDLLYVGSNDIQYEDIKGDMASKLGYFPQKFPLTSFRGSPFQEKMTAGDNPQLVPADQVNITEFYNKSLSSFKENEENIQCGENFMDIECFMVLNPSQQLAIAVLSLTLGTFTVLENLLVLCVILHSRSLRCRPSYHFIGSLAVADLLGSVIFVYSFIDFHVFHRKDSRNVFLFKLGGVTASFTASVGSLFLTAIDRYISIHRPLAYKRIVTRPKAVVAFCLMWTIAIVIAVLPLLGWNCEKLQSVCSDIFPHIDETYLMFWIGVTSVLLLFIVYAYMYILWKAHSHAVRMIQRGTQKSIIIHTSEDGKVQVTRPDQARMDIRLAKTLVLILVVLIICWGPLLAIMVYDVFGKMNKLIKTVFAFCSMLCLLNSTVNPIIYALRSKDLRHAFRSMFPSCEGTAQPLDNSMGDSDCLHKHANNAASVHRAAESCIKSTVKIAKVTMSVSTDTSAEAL

[4] = molecular target: T2, C-C chemokine receptor type 4 (Homo sapiens, UniProt P51679); assay type: cell membranes, Chem-1, Membrane; details: chem-1; also: in other assays of this panel Not Active means under 50% inhibition at 10 µM
T2 sequence (P51679 whole entry): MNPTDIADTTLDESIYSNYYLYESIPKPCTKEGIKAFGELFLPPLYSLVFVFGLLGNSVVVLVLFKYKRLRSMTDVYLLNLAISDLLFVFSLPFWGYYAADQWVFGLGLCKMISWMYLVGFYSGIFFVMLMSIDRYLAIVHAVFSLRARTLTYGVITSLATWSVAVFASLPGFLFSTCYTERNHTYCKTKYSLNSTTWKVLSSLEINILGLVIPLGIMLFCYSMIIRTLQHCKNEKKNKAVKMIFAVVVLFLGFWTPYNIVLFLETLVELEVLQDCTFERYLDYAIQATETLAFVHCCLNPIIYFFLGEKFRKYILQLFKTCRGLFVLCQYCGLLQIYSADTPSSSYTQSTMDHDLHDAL

Sequence of Beta-1 adrenergic receptor (P08588 whole entry): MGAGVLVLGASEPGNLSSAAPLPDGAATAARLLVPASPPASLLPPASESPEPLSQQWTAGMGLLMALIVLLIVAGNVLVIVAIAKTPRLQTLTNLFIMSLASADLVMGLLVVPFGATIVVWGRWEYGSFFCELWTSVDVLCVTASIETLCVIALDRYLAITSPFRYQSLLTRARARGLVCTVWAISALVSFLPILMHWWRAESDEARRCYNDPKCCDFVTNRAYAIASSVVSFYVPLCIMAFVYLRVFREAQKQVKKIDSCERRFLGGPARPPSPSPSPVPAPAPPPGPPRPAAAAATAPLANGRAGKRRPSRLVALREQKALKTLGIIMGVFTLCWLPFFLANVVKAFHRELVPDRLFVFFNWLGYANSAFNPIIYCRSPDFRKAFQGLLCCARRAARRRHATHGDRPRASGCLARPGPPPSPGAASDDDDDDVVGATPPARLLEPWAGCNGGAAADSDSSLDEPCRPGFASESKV

CC[C@@]1(O)C[C@H](O[C@H]2C[C@H](N(C)C)[C@H](O[C@H]3C[C@H](O)[C@H](O[C@H]4CCC(=O)[C@H](C)O4)[C@H](C)O3)[C@H](C)O2)c2c(cc3c(c2O)C(=O)c2c(O)cccc2C3=O)[C@H]1C(=O)OC [ACLARUBICIN]
Not Active: IC50 [1] | IC50 [2] | Ki [2] | IC50 (Cytochrome P450 2D6) | Ki (Cytochrome P450 2D6) | IC50 (Cytochrome P450 2C19) | Ki (Cytochrome P450 2C19) | IC50 [3] | IC50 (Substance-P receptor) | IC50 (Cannabinoid receptor 1) | IC50 [4]

CC(=O)O[C@@]12CO[C@@H]1C[C@H](O)[C@@]1(C)C(=O)[C@H](O)C3=C(C)[C@@H](OC(=O)[C@H](O)[C@@H](NC(=O)OC(C)(C)C)c4ccccc4)C[C@@](O)([C@@H](OC(=O)c4ccccc4)[C@H]21)C3(C)C.O.O.O [DOCETAXEL]
Not Active: IC50 [1] | IC50 [2] | Ki [2] | IC50 (Cytochrome P450 2D6) | Ki (Cytochrome P450 2D6) | IC50 (Cytochrome P450 2C19) | Ki (Cytochrome P450 2C19) | IC50 [3] | IC50 (Substance-P receptor) | IC50 (Cannabinoid receptor 1) | IC50 [4]

C[C@](N)(Cc1ccc(O)c(O)c1)C(=O)O [METHYLDOPA]
Not Active: IC50 [1] | IC50 [2] | Ki [2] | IC50 (Cytochrome P450 2D6) | Ki (Cytochrome P450 2D6) | IC50 (Cytochrome P450 2C19) | Ki (Cytochrome P450 2C19) | IC50 [3] | IC50 (Substance-P receptor) | IC50 (Cannabinoid receptor 1) | IC50 [4]

LIPOPOLYSACCHARIDE E. COLI O55:B5
Not Active: IC50 [1] | Ki [1] | IC50 [2] | Ki [2] | IC50 (Cytochrome P450 2D6) | Ki (Cytochrome P450 2D6) | IC50 (Cytochrome P450 2C19) | Ki (Cytochrome P450 2C19) | IC50 [3] | Ki [3] | IC50 (Substance-P receptor) | Ki (Substance-P receptor) | IC50 (Cannabinoid receptor 1) | Ki (Cannabinoid receptor 1) | IC50 [4] | Ki [4]

CC(C)C(=O)Nc1ccc([N+](=O)[O-])c(C(F)(F)F)c1 [FLUTAMIDE]
Not Active: IC50 [1] | IC50 [2] | Ki [2] | IC50 (Cytochrome P450 2D6) | Ki (Cytochrome P450 2D6) | IC50 (Cytochrome P450 2C19) | Ki (Cytochrome P450 2C19) | IC50 [3] | IC50 (Substance-P receptor) | IC50 (Cannabinoid receptor 1) | IC50 [4]

CC(C)[C@H]1C(=O)N2CCC[C@H]2[C@]2(O)O[C@](NC(=O)[C@@H]3C=C4c5cccc6[nH]cc(c56)C[C@H]4N(C)C3)(C(C)C)C(=O)N12 [ERGOCORNINE]
Not Active: IC50 [1] | IC50 [2] | Ki [2] | IC50 (Cytochrome P450 2D6) | Ki (Cytochrome P450 2D6) | IC50 (Cytochrome P450 2C19) | Ki (Cytochrome P450 2C19) | IC50 [3] | IC50 (Substance-P receptor) | IC50 (Cannabinoid receptor 1) | IC50 [4]

CCCC1O[C@@H]2C[C@H]3[C@@H]4CCC5=CC(=O)C=C[C@]5(C)[C@H]4[C@@H](O)C[C@]3(C)[C@]2(C(=O)CO)O1 (stereo partly specified) [BUDESONIDE]
Not Active: IC50 [1] | IC50 [2] | Ki [2] | IC50 (Cytochrome P450 2D6) | Ki (Cytochrome P450 2D6) | IC50 (Cytochrome P450 2C19) | Ki (Cytochrome P450 2C19) | IC50 [3] | IC50 (Substance-P receptor) | IC50 (Cannabinoid receptor 1) | IC50 [4]

O=C(CCCN1CC=C(n2c(=O)[nH]c3ccccc32)CC1)c1ccc(F)cc1 [DROPERIDOL]
Not Active: IC50 [1] | IC50 [2] | Ki [2] | IC50 (Cytochrome P450 2D6) | Ki (Cytochrome P450 2D6) | IC50 (Cytochrome P450 2C19) | Ki (Cytochrome P450 2C19) | IC50 [3] | IC50 (Substance-P receptor) | IC50 (Cannabinoid receptor 1) | IC50 [4]

Clc1cccc(Cl)c1NC1=NCCN1 [CLONIDINE]
Not Active: IC50 [1] | IC50 [2] | Ki [2] | IC50 (Cytochrome P450 2D6) | Ki (Cytochrome P450 2D6) | IC50 (Cytochrome P450 2C19) | Ki (Cytochrome P450 2C19) | IC50 [3] | IC50 (Substance-P receptor) | IC50 (Cannabinoid receptor 1) | IC50 [4]

Cc1onc(O)c1CC(N)C(=O)O (racemic) [(R,S)-AMPA]
Not Active: IC50 [1] | IC50 [2] | Ki [2] | IC50 (Cytochrome P450 2D6) | Ki (Cytochrome P450 2D6) | IC50 (Cytochrome P450 2C19) | Ki (Cytochrome P450 2C19) | IC50 [3] | IC50 (Substance-P receptor) | IC50 (Cannabinoid receptor 1) | IC50 [4]

CCOC(=O)C1=C(COCCN)NC(C)=C(C(=O)OC)C1c1ccccc1Cl (stereo unspecified) [AMLODIPINE]
Not Active: IC50 [1] | IC50 [2] | Ki [2] | IC50 (Cytochrome P450 2D6) | Ki (Cytochrome P450 2D6) | IC50 (Cytochrome P450 2C19) | Ki (Cytochrome P450 2C19) | IC50 [3] | IC50 (Substance-P receptor) | IC50 (Cannabinoid receptor 1) | IC50 [4]
